Assay results published in PMC13164762, “Development and Validation of an LC-MS/MS Method for the Quantitation of JNJ-64619178 (JNJ) in Mouse Plasma: Characterization of In Vitro and In Vivo Pharmacokinetic Properties” (Molecules, 2026).
≈ marks a conversion by molar mass, not a printed value. Where two headings read alike, the source gives them in different places.

Legend:
[1] = Caco-2 permeability study; type: in vitro ADME, human; conditions: human, Caco-2, absorptive direction (apical to basal), read-out: apparent permeability (Papp), Caco-2
Method: (§1) Human colon carcinoma cells (Caco-2) were obtained from ATCC (American Type Culture Collection) (Manassas, VA, USA). Caco-2 cells were cultured in Dulbecco’s Modified Eagle’s Medium (DMEM), supplemented with 10% fetal bovine serum, 1% nonessential amino acids, 100 U mL^−1 penicillin, and 100 µg mL^−1 streptomycin. The cells were split upon reaching the 80–90% confluence to make them ready to seed. Afterwards, the cells were seeded at a density of 80,000 cells/well in a 12-well tissue culture plate with a 0.4 µm pore size, purchased from CELLTREAT Scientific Products (Pepperell, MA, USA), and incubated at 37 °C in an incubator with 5% CO2 conditions. […] The integrity of the monolayer was evaluated by measuring the transepithelial electrical resistance (TEER) value using EVOM2™ Epithelial Voltohmmeter purchased from World Precision Instruments Inc. (Sarasota, FL, USA).
(§2) JNJ was spiked at a final concentration of 10 µM to the apical side in a volume of 500 µL HBSS-HEPES (10 mM) buffer along with the positive control (propranolol and atenolol) in respective wells. […] After determined timepoints (0, 30, 60, 90, and 120 min), 100 µL aliquots were collected from the apical or basolateral sites, each time replacing with an equal volume of blank buffer. […]

[2] = tested on: Caco-2 cell monolayer; experiment: Caco-2 permeability study; type: in vitro ADME, human; conditions: absorptive direction (apical to basal), 10 µM
Method: as §1, §2

[3] = Kinetic solubility study; type: physicochemical; conditions: PBS, room temperature, read-out: kinetic aqueous solubility
Method: An amount of 500 µL of PBS was taken into a 96-well plate in the required rows. The required volume of the JNJ stock solution was spiked to make the final concentrations of 160, 80, 60, 50, 40, 20, 10, and 5 µg mL^−1. The plate was vortexed at 1000 rpm for 5 min and incubated at room temperature for 2 h. After incubation, aliquots of 100 µL of the samples were collected and diluted 2 times with acetonitrile. Diluted samples were centrifuged at 2200× g for 10 min. Then, 10 µL of supernatant was added to another collection plate, where previously 200 µL of the mobile phase supplemented with 10 µL IS was taken.

[4] = tested on: HD-MB cell line; conditions: method and reference not given; cited from earlier work
[5] = Biodistribution and brain penetration after PO dose; type: in vivo, balb/c mice; conditions: for concentration at 2 h / concentration at 8 h / concentration at 24 h: po
Method: Mouse plasma and tissue samples (liver, spleen, kidney, lung and brain) were prepared following the SPE procedure. Collected tissues were homogenized using Tissue Lyser II purchased from Qiagen Science, KY, after adding four times as much water as the tissue mass. For calibration standards and QC sample preparation, the 10 µL working stock and IS were spiked into 100 µL mouse plasma or tissue homogenates (liver, spleen, kidney, lung, and brain). After vortexing for 30 s on a Mixmate (Eppendorf North America, Enfield, CT, USA), samples were diluted with 600 µL of 5% formic acid and vortexed again at 1000 rpm for 2 min. Samples were centrifuged at 956× g for 10 min to get a clear sample that was not prone to blocking the cartridge during the SPE. Extraction was initiated by conditioning the cartridge (Oasis HLB 1 cc, Waters, Millford, MA, USA) with 1 mL of methanol, followed by a second conditioning with 1 mL of water. Then, the above-prepared samples were loaded into the cartridge and allowed to pass through the cartridge. Next, the cartridge was washed with 1 mL 15% methanol and dried for 1 min prior to the elution. For final elution, 500 µL 5% ammonium hydroxide in acetonitrile was eluted through the cartridges twice. Collected eluates were dried in a nitrogen dryer and reconstituted with 200 µL of mobile phase. Reconstituted samples were centrifuged at 956× g for 10 min, 150 µL supernatants were collected, and 5 µL was injected for LC-MS/MS.
For the oral PK study, male balb/C mice were grouped into two groups, with n = 4 for each group. Throughout the experiment, mice had free access to adequate food and water. The oral solution comprised 20% (v/v) polyethylene glycol 400, 10% (v/v) propylene glycol, 10% (v/v) ethanol, 2% (v/v) DMSO, 5% cremophore, and water as the rest of the volume. For the IV dose administration, 12 male balb/C mice were used in the study, divided into two groups. The IV solution used the same composition as the oral study. Doses of 10 and 2.5 mg kg^−1 were used for oral and IV routes, respectively. Blood samplings were done at 5 min, 15 min, 30 min, 1 h, 2 h, 4 h, 8 h, and 24 h. After collection, blood samples were centrifuged immediately at 956× g for 10 min, and plasma was separated in an Eppendorf tube and stored at −80 °C until processed. In the oral PK study, tissues—liver, kidney, spleen, lung, and brain—were collected at 2, 8, and 24 h to assess the biodistribution pattern of JNJ in the oral route.

SMILES: Nc1nc2cc(CC[C@H]3C[C@@H](n4ccc5c(N)ncnc54)[C@H](O)[C@@H]3O)ccc2cc1Br [JNJ, JNJ-64619178]
- Papp A→B at 120 min, 10 µM [1]: 3.4 ± 0.4 ×10⁻⁶ cm/s
- apparent permeability (Papp), Caco-2 [2]: 3 ± 0.4 (×10^−6) cm s^−1
- solubility kinetic at 2 h [3]: 3 ± 0.6 µg/mL (≈ 6.21 µM)
- IC50 [4]: 1700 nM
- In Vitro IC50 [4]: 0.821 µg/mL
- Brain Content ([5]; 2 h after single PO 10 mg kg^−1, balb/c mice, n = 4): 55 ng/g
- Brain Content ([5]; 8 h after single PO 10 mg kg^−1, balb/c mice, n = 4): 34 ng/g
- Brain Content ([5]; 24 h after single PO 10 mg kg^−1, balb/c mice, n = 4): 23 ng/g
- unbound plasma and brain concentrations/contents, fold lower than in vitro IC50 ([5]; across all time points, PO 10 mg kg^−1): more than 20 fold
- concentration at 2 h ([5]; male, BALB/c, mouse, brain, 10 mg kg^−1, 2 h, PO 10 mg kg^−1, estimated with fu,brain = 0.057, read-out: Unbound Brain Content): 3.1 ng/g
- concentration at 2 h ([5]; male, BALB/c, mouse, brain, 10 mg kg^−1, 2 h after single PO 10 mg kg^−1, balb/c mice, n = 4, read-out: Brain Content): 55 ± 27 ng/g
- concentration at 8 h ([5]; male, BALB/c, mouse, brain, 10 mg kg^−1, 8 h, PO 10 mg kg^−1, estimated with fu,brain = 0.057, read-out: Unbound Brain Content): 1.9 ng/g
- concentration at 8 h ([5]; male, BALB/c, mouse, brain, 10 mg kg^−1, 8 h after single PO 10 mg kg^−1, balb/c mice, n = 4, read-out: Brain Content): 34 ± 1 ng/g
- concentration at 24 h ([5]; male, BALB/c, mouse, brain, 10 mg kg^−1, 24 h, PO 10 mg kg^−1, estimated with fu,brain = 0.057, read-out: Unbound Brain Content): 1.3 ng/g
- concentration at 24 h ([5]; male, BALB/c, mouse, brain, 10 mg kg^−1, 24 h after single PO 10 mg kg^−1, balb/c mice, n = 4, read-out: Brain Content): 23 ± 3 ng/g
- concentration at 8 h ([5]; male, BALB/c, mouse, kidney, 10 mg kg^−1, 8 h after single PO 10 mg kg^−1, balb/c mice, n = 4, read-out: Content, Kidney): 474 ± 131 ng/g
- concentration at 24 h ([5]; male, BALB/c, mouse, kidney, 10 mg kg^−1, 24 h after single PO 10 mg kg^−1, balb/c mice, n = 4, read-out: Content, Kidney): 56 ± 27 ng/g
- concentration at 8 h ([5]; male, BALB/c, mouse, liver, 10 mg kg^−1, 8 h after single PO 10 mg kg^−1, balb/c mice, n = 4, read-out: Content, Liver): 1190 ± 167 ng/g
- concentration at 24 h ([5]; male, BALB/c, mouse, liver, 10 mg kg^−1, 24 h after single PO 10 mg kg^−1, balb/c mice, n = 4, read-out: Content, Liver): 52 ± 31 ng/g
- concentration at 2 h ([5]; male, BALB/c, mouse, lung, 10 mg kg^−1, 2 h after single PO 10 mg kg^−1, balb/c mice, n = 4, read-out: Content, Lung): 2570 ± 550 ng/g
- concentration at 8 h ([5]; male, BALB/c, mouse, lung, 10 mg kg^−1, 8 h after single PO 10 mg kg^−1, balb/c mice, n = 4, read-out: Content, Lung): 599 ± 91 ng/g
- concentration at 24 h ([5]; male, BALB/c, mouse, lung, 10 mg kg^−1, 24 h after single PO 10 mg kg^−1, balb/c mice, n = 4, read-out: Content, Lung): 45 ± 25 ng/g
- concentration at 2 h ([5]; male, BALB/c, mouse, plasma, 10 mg kg^−1, 2 h, PO 10 mg kg^−1, balb/c mice, read-out: Plasma Concentration): 1470 ng/mL
- concentration at 2 h ([5]; male, BALB/c, mouse, plasma, 10 mg kg^−1, 2 h, PO 10 mg kg^−1, estimated with fu,plasma = 0.025, read-out: Unbound Plasma Concentration): 37 ng/mL
- concentration at 8 h ([5]; male, BALB/c, mouse, plasma, 10 mg kg^−1, 8 h, PO 10 mg kg^−1, balb/c mice, read-out: Plasma Concentration): 93 ng/mL
- concentration at 8 h ([5]; male, BALB/c, mouse, plasma, 10 mg kg^−1, 8 h, PO 10 mg kg^−1, estimated with fu,plasma = 0.025, read-out: Unbound Plasma Concentration): 2.3 ng/mL
- concentration at 24 h ([5]; male, BALB/c, mouse, plasma, 10 mg kg^−1, 24 h, PO 10 mg kg^−1, balb/c mice, read-out: Plasma Concentration): 1.6 ng/mL
- concentration at 24 h ([5]; male, BALB/c, mouse, plasma, 10 mg kg^−1, 24 h, PO 10 mg kg^−1, estimated with fu,plasma = 0.025, read-out: Unbound Plasma Concentration): 0.04 ng/mL
- concentration at 2 h ([5]; male, BALB/c, mouse, spleen, 10 mg kg^−1, 2 h after single PO 10 mg kg^−1, balb/c mice, n = 4, read-out: Content, Spleen): 1900 ± 220 ng/g
- concentration at 8 h ([5]; male, BALB/c, mouse, spleen, 10 mg kg^−1, 8 h after single PO 10 mg kg^−1, balb/c mice, n = 4, read-out: Content, Spleen): 643 ± 58 ng/g
- concentration at 24 h ([5]; male, BALB/c, mouse, spleen, 10 mg kg^−1, 24 h after single PO 10 mg kg^−1, balb/c mice, n = 4, read-out: Content, Spleen): 95 ± 25 ng/g
- concentration at 2 h ([5]; male, balb/c, mouse, kidney, 10 mg kg^−1, 2 h after single PO 10 mg kg^−1, balb/c mice, n = 4, read-out: Content, Kidney): 2950 ± 822 ng/g
- concentration at 2 h ([5]; male, balb/c, mouse, liver, 10 mg kg^−1, 2 h after single PO 10 mg kg^−1, balb/c mice, n = 4, read-out: Content, Liver): 6070 ± 1500 ng/g
- Kp uu at 2 h ([5]; male, mouse, brain, 2 h, PO 10 mg kg^−1, balb/c mice, read-out: Kp,uu,brain (unbound brain-to-plasma partition coefficient)): 0.08
- Kp uu at 8 h ([5]; male, mouse, brain, 8 h, PO 10 mg kg^−1, balb/c mice, read-out: Kp,uu,brain (unbound brain-to-plasma partition coefficient)): 0.82
- Kp uu at 24 h ([5]; male, mouse, brain, 24 h, PO 10 mg kg^−1, balb/c mice, read-out: Kp,uu,brain (unbound brain-to-plasma partition coefficient)): 33.3
